18 compounds from patent US10556907B2 (AbbVie Inc., priority 2015, dated 2020) can be followed below.

Counter-ions that a name gives are not always drawn.

Holding throughout (experiment): Method 1: intracellular Ca2+ release (FLIPR, Calcium 5) in recombinant CHO-K1 cells
Type in all cases: cell-based

The target in one experiment is T1, human S1PR3 receptor (Homo sapiens, UniProt Q99500).
T1 construct: host or cells: CHO-K1
Conditions: (1): determined with method 1; read-out: S1P3 EC50. A digest of the protocol:
(§1)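 Agonist EC50 values come from nonlinear fits of FLIPR Ca2+ fluorescence, normalized to the phospho-fingolimod reference curve. Recombinant CHO-K1 (receptor plus Gq/i5, aequorin) dye-loaded 1 h at 37° C in pH 7.4 Hepes/probenecid/BSA buffer. Antagonist mode: 10 min preincubation before phospho-fingolimod at EC80.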

The target in another experiment is T2, human S1PR5 receptor (Homo sapiens, UniProt Q9H228).
T2 construct: host or cells: CHO-K1
As to conditions: agonist potency, determined with method 1 (symbols A-D); read-out: S1P5 EC50 range. A digest of the protocol:
as §1

Another experiment deals with T3, human S1PR4 receptor (Homo sapiens, UniProt O95977).
T3 construct: host or cells: CHO-K1
T3 sequence (O95977 1-384): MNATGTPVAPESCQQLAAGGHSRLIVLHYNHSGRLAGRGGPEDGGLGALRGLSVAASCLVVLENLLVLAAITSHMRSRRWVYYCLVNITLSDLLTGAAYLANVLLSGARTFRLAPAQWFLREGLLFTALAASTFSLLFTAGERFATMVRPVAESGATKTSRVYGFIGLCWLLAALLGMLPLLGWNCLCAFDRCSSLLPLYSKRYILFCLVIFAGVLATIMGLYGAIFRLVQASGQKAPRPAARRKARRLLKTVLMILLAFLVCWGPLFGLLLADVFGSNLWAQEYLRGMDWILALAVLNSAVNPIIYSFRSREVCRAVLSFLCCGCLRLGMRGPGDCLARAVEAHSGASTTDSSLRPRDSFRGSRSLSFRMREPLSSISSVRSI
Conditions: (1): determined with method 1; read-out: S1P4 EC50. The method in brief: as §1

The target of a further experiment is T4, human S1PR1 receptor (Homo sapiens, UniProt P21453).
T4 construct: host or cells: CHO-K1
As to conditions: (1): determined with method 1; read-out: S1P1 EC50. A digest of the protocol:
as §1

T1 sequence (Q99500 whole entry): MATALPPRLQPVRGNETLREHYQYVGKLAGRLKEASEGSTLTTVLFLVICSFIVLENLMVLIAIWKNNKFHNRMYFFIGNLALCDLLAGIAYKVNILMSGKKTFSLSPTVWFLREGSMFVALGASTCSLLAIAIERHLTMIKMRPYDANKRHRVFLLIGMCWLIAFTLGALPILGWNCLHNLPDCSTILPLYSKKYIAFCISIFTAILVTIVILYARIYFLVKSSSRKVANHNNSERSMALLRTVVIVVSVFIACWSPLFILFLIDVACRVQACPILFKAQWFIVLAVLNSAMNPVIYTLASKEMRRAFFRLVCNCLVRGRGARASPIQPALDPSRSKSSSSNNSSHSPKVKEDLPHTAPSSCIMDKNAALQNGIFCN
T4 sequence (P21453 whole entry): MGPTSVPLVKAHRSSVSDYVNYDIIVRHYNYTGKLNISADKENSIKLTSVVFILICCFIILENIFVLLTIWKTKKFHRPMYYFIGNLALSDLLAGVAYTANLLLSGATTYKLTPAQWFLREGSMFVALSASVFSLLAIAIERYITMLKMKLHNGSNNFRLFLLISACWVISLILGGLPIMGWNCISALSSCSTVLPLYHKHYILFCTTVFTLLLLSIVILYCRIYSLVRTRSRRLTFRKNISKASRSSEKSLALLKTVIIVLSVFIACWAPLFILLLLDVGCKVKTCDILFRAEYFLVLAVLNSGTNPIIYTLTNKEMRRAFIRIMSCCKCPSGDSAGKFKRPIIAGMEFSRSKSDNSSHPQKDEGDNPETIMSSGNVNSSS
T2 sequence (Q9H228 whole entry): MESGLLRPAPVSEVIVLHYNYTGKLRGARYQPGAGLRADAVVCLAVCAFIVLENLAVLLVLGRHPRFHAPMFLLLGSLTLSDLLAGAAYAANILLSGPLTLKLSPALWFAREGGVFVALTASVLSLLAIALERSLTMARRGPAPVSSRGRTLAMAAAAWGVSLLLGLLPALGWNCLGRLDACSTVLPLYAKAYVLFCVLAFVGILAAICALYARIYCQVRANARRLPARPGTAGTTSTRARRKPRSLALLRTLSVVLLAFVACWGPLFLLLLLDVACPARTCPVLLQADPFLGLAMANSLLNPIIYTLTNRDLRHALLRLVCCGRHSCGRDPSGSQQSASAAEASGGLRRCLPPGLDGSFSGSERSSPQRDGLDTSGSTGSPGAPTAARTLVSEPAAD

The term EC50 denotes the concentration at which the effect is half-maximal. For the compound `CC(CC(=O)O)CN1CCc2nc(-c3ccc(OCc4ccc(Cl)cc4)cc3F)ncc2C1` (stereo not drawn) [Compound 236, 4-(2-(4-((4-chlorobenzyl)oxy)-2-fluorophenyl)-7,8-dihydropyrido[4,3-d]pyrimidin-6(5H)-yl)-3-methylbutanoic acid], the EC50 is more than 1000 nM at human S1PR3 receptor, less than 10 nM on human S1PR5 receptor, more than 1000 nM at human S1PR4 receptor and more than 1000 nM on human S1PR1 receptor.

As for `O=C(O)CN1CCc2nc(Cc3ccccc3)ncc2C1` [Compound 24, 2-(2-benzyl-7,8-dihydropyrido[4,3-d]pyrimidin-6(5H)-yl)acetic acid], the EC50 is more than 1000 nM on human S1PR3 receptor, 1000 to 10000 nM on human S1PR5 receptor, more than 1000 nM at human S1PR4 receptor and more than 1000 nM on human S1PR1 receptor.

With `CC(CC(=O)O)CN1CCc2nc(-c3ccc(OCc4ccc(Cl)cc4)cc3)ncc2C1` (stereo not drawn) [Compound 259, 4-(2-(4-((4-chlorobenzyl)oxy)phenyl)-7,8-dihydropyrido[4,3-d]pyrimidin-6(5H)-yl)-3-methylbutanoic acid], the EC50 is more than 1000 nM on human S1PR3 receptor, 10 to 100 nM at human S1PR5 receptor, more than 1000 nM at human S1PR4 receptor and more than 1000 nM on human S1PR1 receptor.

`Cc1cc(-c2ccc3c(n2)CCN(CCC(=O)O)C3)ccc1OCc1ccc(Cl)cc1` [Compound 169, 3-(2-(4-((4-chlorobenzyl)oxy)-3-methylphenyl)-7,8-dihydro-1,6-naphthyridin-6(5H)-yl)propanoic acid]: the EC50 is more than 1000 nM at human S1PR3 receptor, less than 10 nM on human S1PR5 receptor, more than 1000 nM at human S1PR4 receptor and more than 1000 nM at human S1PR1 receptor.

In the case of `O=C(O)CC1CC(N2CCc3nc(-c4ccc(OCc5cccc(Cl)c5)cc4)ncc3C2)C1` (stereo not drawn) [Compound 3, 2-(3-(2-(4-((3-chlorobenzyl)oxy)phenyl)-7,8-dihydropyrido[4,3-d]pyrimidin-6(5H)-yl)cyclobutyl)acetic acid], the EC50 was more than 1000 nM on human S1PR3 receptor, 100 to 1000 nM on human S1PR5 receptor, more than 1000 nM at human S1PR4 receptor and more than 1000 nM on human S1PR1 receptor.

`O=C(O)C1CC(N2CCc3nc(C#Cc4ccccc4Cl)ccc3C2)C1` (stereo not drawn) [Compound 126, 3-(2-((2-chlorophenyl)ethynyl)-7,8-dihydro-1,6-naphthyridin-6(5H)-yl)cyclobutanecarboxylic acid]: the EC50 is more than 1000 nM at human S1PR3 receptor, 1000 to 10000 nM at human S1PR5 receptor, more than 1000 nM on human S1PR4 receptor and more than 1000 nM at human S1PR1 receptor.

Take `CC(CC(=O)O)CN1CCc2nc(-c3ccc(OCc4c(Cl)cccc4Cl)cc3)ncc2C1` (stereo not drawn) [Compound 243, 4-[2-[4-[(2,6-dichlorophenyl)methoxy]phenyl]-7,8-dihydro-5H-pyrido[4,3-d]pyrimidin-6-yl]-3-methyl-butanoic acid 2,2,2-trifluoroacetic acid salt]: the EC50 on human S1PR3 receptor is more than 1000 nM; on human S1PR5 receptor, less than 10 nM; on human S1PR4 receptor, more than 1000 nM; on human S1PR1 receptor it was more than 1000 nM.

In the case of `C[C@@H](CC(=O)O)CN1CCc2nc(-c3ccc(C(F)(F)Cc4ccc(Cl)cc4)cc3)ncc2C1` (single isomer, unassigned) [Compound 266, 4-(2-(4-(2-(4-chlorophenyl)-1,1-difluoroethyl)phenyl)-7,8-dihydropyrido[4,3-d]pyrimidin-6(5H)-yl)-3-methylbutanoic acid], the EC50 at human S1PR3 receptor is more than 1000 nM; on human S1PR5 receptor, 10 to 100 nM; on human S1PR4 receptor, more than 1000 nM; at human S1PR1 receptor it was more than 1000 nM.

On to `O=C(O)C1CC(N2CCc3nc(C#Cc4cc(F)cc(F)c4)ncc3C2)C1` (stereo not drawn) [Compound 61, 3-(2-((3,5-difluorophenyl)ethynyl)-7,8-dihydropyrido[4,3-d]pyrimidin-6(5H)-yl)cyclobutanecarboxylic acid], for which the EC50 at human S1PR3 receptor is more than 1000 nM; at human S1PR5 receptor, 1000 to 10000 nM; at human S1PR4 receptor it was more than 1000 nM; at human S1PR1 receptor it was more than 1000 nM.

As to `C[C@@H](CC(=O)O)CN1CCc2nc(-c3ccc(OCc4ccc(Cl)cc4)cc3)ncc2C1=O` [Compound 267, (S)-4-(2-(4-((4-chlorobenzyl)oxy)phenyl)-5-oxo-7,8-dihydropyrido[4,3-d]pyrimidin-6(5H)-yl)-3-methylbutanoic acid], the EC50 at human S1PR3 receptor was more than 1000 nM; on human S1PR5 receptor it was 10 to 100 nM; at human S1PR4 receptor it was more than 1000 nM; at human S1PR1 receptor, more than 1000 nM.

Consider `Cc1ccc(C(F)(F)F)cc1COc1ccc(-c2ncc3c(n2)CCN(CCC(=O)O)C3)cc1` [Compound 88, 3-(2-(4-((2-methyl-5-(trifluoromethyl)benzyl)oxy)phenyl)-7,8-dihydropyrido[4,3-d]pyrimidin-6(5H)-yl)propanoic acid], for which the EC50 on human S1PR3 receptor is more than 1000 nM; at human S1PR5 receptor, less than 10 nM; on human S1PR4 receptor, more than 1000 nM; on human S1PR1 receptor, more than 1000 nM.

Consider `CC(CC(=O)O)CN1CCc2nc(-c3ccc(OCc4ccccc4F)cc3F)ncc2C1` (stereo not drawn) [Compound 242, 4-[2-[2-fluoro-4-[(2-fluorophenyl)methoxy]phenyl]-7,8-dihydro-5H-pyrido[4,3-d]pyrimidin-6-yl]-3-methyl-butanoic acid 2,2,2-trifluoroacetic acid salt], for which the EC50 is more than 1000 nM on human S1PR3 receptor, less than 10 nM on human S1PR5 receptor, more than 1000 nM on human S1PR4 receptor and more than 1000 nM at human S1PR1 receptor.

On to `CC(C)c1ccc(C#Cc2ncc3c(n2)CCN(C2CC(C(=O)O)C2)C3)cc1` (stereo not drawn) [Compound 58, 3-(2-((4-isopropylphenyl)ethynyl)-7,8-dihydropyrido[4,3-d]pyrimidin-6(5H)-yl)cyclobutanecarboxylic acid], for which the EC50 at human S1PR3 receptor was more than 1000 nM; on human S1PR5 receptor, 1000 to 10000 nM; on human S1PR4 receptor, more than 1000 nM; on human S1PR1 receptor, more than 1000 nM.

Consider `O=C(O)C1CC(N2CCc3nc(C#Cc4ccc(F)cc4)ncc3C2)C1` (stereo not drawn) [Compound 57, 3-(2-((4-fluorophenyl)ethynyl)-7,8-dihydropyrido[4,3-d]pyrimidin-6(5H)-yl)cyclobutanecarboxylic acid], for which the EC50 at human S1PR3 receptor was more than 1000 nM; at human S1PR5 receptor, 1000 to 10000 nM; at human S1PR4 receptor, more than 1000 nM; on human S1PR1 receptor, more than 1000 nM.

As to `O=C(O)CC1(CN2CCc3nc(-c4ccc(OCc5ccc(Cl)cc5)cc4)ncc3C2)CC1` [Compound 281, 2-((4(2-(4-((4-chlorobenzyl)oxy)phenyl)-7,8-dihydropyrido[4,3-d]pyrimidin-6(5H)-yl)methyl)cyclopropyl)acetic acid], the EC50 at human S1PR3 receptor is more than 1000 nM; at human S1PR5 receptor, 10 to 100 nM; on human S1PR4 receptor, more than 1000 nM; on human S1PR1 receptor it was more than 1000 nM.

With `CCOc1ccc(C#Cc2ccc3c(n2)CCN(C2CC(C(=O)O)C2)C3)cc1` (stereo not drawn) [Compound 122, 3-(2-((4-ethoxyphenyl)ethynyl)-7,8-dihydro-1,6-naphthyridin-6(5H)-yl)cyclobutanecarboxylic acid], the EC50 is more than 1000 nM on human S1PR3 receptor, 1000 to 10000 nM on human S1PR5 receptor, more than 1000 nM on human S1PR4 receptor and more than 1000 nM at human S1PR1 receptor.

In the case of `CC(CC(=O)O)CN1CCc2nc(-c3ccc(C(F)(F)Cc4ccc(Cl)cc4F)cc3)ncc2C1` (stereo not drawn) [Compound 277], the EC50 is more than 1000 nM at human S1PR3 receptor, 10 to 100 nM on human S1PR5 receptor, more than 1000 nM at human S1PR4 receptor and more than 1000 nM on human S1PR1 receptor.

As for `CC(CCC(=O)O)N1CCc2nc(-c3ccc(OCc4cccc(Cl)c4)cc3)ncc2C1` (stereo not drawn) [Compound 65, 4-(2-(4-((3-chlorobenzyl)oxy)phenyl)-7,8-dihydropyrido[4,3-d]pyrimidin-6(5H)-yl)pentanoic acid], the EC50 was more than 1000 nM on human S1PR3 receptor, 10 to 100 nM on human S1PR5 receptor, more than 1000 nM on human S1PR4 receptor and more than 1000 nM on human S1PR1 receptor.
